Values after ≈ are worked out from the molar mass of the structure shown. Active and inactive are the calls of the source. No cut-off for these calls is given here. Peptide text beside a SMILES is read from it.
Key:
Salmonella typhimurium [1] = assay: Antibacterial activity against Salmonella typhimurium DT104 infected in ICR mouse model assessed as alleviation of villi shortening at 20 mg/kg, ip administered for 3 days and measured on day 7 by H&E staining based analysis; assay type: functional, organism-based; settings: Salmonella enterica subsp. enterica serovar Typhimurium, time 7.0 day
[2] = Antibacterial activity against Salmonella wandsworth CICC 21504 incubated overnight by standard microtiter dilution method; assay type: functional, Salmonella enterica subsp. enterica serovar Wandsworth; settings: Salmonella enterica
Salmonella typhimurium [3] = assay: Antibacterial activity against Salmonella typhimurium DT104 assessed as increase in ZO-1 mRNA level in colon at 20 mg/kg, ip administered for 3 days and measured on day 7 by RT-PCR analysis; assay type: functional, organism-based; settings: Salmonella enterica subsp. enterica serovar Typhimurium, time 7.0 day
Salmonella typhimurium [4] = assay: Antibacterial activity against Salmonella typhimurium DT104 in the presence of NaCl by MH broth based assay; assay type: functional, Salmonella enterica subsp. enterica serovar Typhimurium; settings: Salmonella enterica
Candida albicans = assay: Antifungal activity against Candida albicans ATCC 10231 incubated overnight by standard microtiter dilution method; assay type: functional
Salmonella typhimurium [5] = assay: Antibacterial activity against Salmonella typhimurium DT104 assessed as reduction in TNF-alpha mRNA level in ileum at 20 mg/kg, ip administered for 3 days and measured on day 7 by RT-PCR analysis; assay type: functional, organism-based; settings: Salmonella enterica subsp. enterica serovar Typhimurium, time 7.0 day
Salmonella typhimurium [6] = assay: Antibacterial activity against Salmonella typhimurium DT104 assessed as reduction in IL-6 mRNA level in ileum at 20 mg/kg, ip administered for 3 days and measured on day 7 by RT-PCR analysis; assay type: functional, organism-based; settings: Salmonella enterica subsp. enterica serovar Typhimurium, time 7.0 day
RAW264.7 [7] = assay: Anti-inflammatory activity in mouse RAW264.7 cells assessed as inhibition of LPS-induced iNOS mRNA expression at 15 ug/ml preincubated with compound for 30 mins followed by LPS stimulation and measured after 4 hrs by RT-PCR analysis; assay type: functional, cell-based; settings: dose 15.0 µg/ml, time 4.5 hrs
RAW264.7 [8] = assay: Inhibition of LPS-stimulated IL-8 production in mouse RAW264.7 cells at 1 to 128 ug/ml incubated for 24 hrs by ELISA analysis; assay type: functional, cell-based; settings: dose 1-128 µg/ml
Salmonella typhimurium [9] = assay: Antibacterial activity against Salmonella typhimurium DT104 assessed as increase in claudin mRNA level in colon at 20 mg/kg, ip administered for 3 days and measured on day 7 by RT-PCR analysis; assay type: functional, organism-based; settings: Salmonella enterica subsp. enterica serovar Typhimurium, time 7.0 day
Salmonella typhimurium [10] = assay: Antibacterial activity against multi-drug resistant Salmonella typhimurium DT104 infected in ICR mouse model assessed as reduction in bacterial population in fecus at 2 mg/kg, ip administered for 3 days; assay type: functional, organism-based; settings: Salmonella enterica subsp. enterica serovar Typhimurium, time 3.0 day
RAW264.7 [11] = assay: Anti-inflammatory activity in mouse RAW264.7 cells assessed as inhibition of LPS-induced IL-4 mRNA expression at 15 ug/ml preincubated with compound for 30 mins followed by LPS stimulation and measured after 4 hrs by RT-PCR analysis; assay type: functional, cell-based; settings: dose 15.0 µg/ml, time 4.5 hrs
Erythrocyte = assay: Hemolytic activity in human Red blood cells assessed as hemolysis incubated for 1 hrs by absorbance based microplate reader analysis; assay type: toxicity, cell-based
Salmonella typhimurium [12] = assay: Antibacterial activity against Salmonella typhimurium DT104 infected in mouse RAW264.7 cells assessed as reduction in bacterial cells at 1 times of MIC measured for 180 mins by MH agar based serial dilution method; assay type: functional, organism-based; settings: Salmonella enterica subsp. enterica serovar Typhimurium
Escherichia coli = assay: Antibacterial activity against Escherichia coli O157:H7 CICC 21530 incubated overnight by standard microtiter dilution method; assay type: functional
Lipopolysaccharide (LPS) = assay: Displacement of BODIPY-TR-cadaverine from Salmonella typhimurium LPS assessed as increase in fluorescence intensity by fluorescence spectrophotometric analysis; settings: Salmonella enterica subsp. enterica serovar Typhimurium; dose 0.25-8 µg/ml
RAW264.7 [13] = assay: Inhibition of LPS-stimulated TNF-alpha production in mouse RAW264.7 cells at 1 to 128 ug/ml incubated for 24 hrs by ELISA analysis; assay type: functional, cell-based; settings: dose 1-128 µg/ml
[14] = Antibacterial activity against Salmonella blockley CICC 21489 incubated overnight by standard microtiter dilution method; assay type: functional, Salmonella enterica subsp. enterica serovar Blockley; settings: Salmonella enterica
Salmonella typhimurium [15] = assay: Antibacterial activity against Salmonella typhimurium DT104 infected in mouse RAW264.7 cells assessed as bacterial killing at 1 times of MIC measured after 90 mins by MH agar based serial dilution method relative to control; assay type: functional, Salmonella enterica subsp. enterica serovar Typhimurium; settings: 1.5 h
Salmonella typhimurium [16] = assay: Antibacterial activity against Salmonella typhimurium DT104 in the presence of KCl by MH broth based assay; assay type: functional, Salmonella enterica subsp. enterica serovar Typhimurium; settings: Salmonella enterica
Salmonella typhimurium [17] = assay: Antibacterial activity against Salmonella typhimurium DT104 in the presence 25% inactivated mouse serum by MH broth based assay; assay type: functional, Salmonella enterica subsp. enterica serovar Typhimurium; settings: Salmonella enterica
Salmonella typhimurium [18] = assay: Antibacterial activity against Salmonella typhimurium DT104 assessed as reduction in IL-1beta production in serum at 20 mg/kg, ip administered for 3 days and measured on day 7; assay type: functional, organism-based; settings: Salmonella enterica subsp. enterica serovar Typhimurium, time 7.0 day
Salmonella typhimurium [19] = assay: Antibacterial activity against Salmonella typhimurium DT104 in the presence 50% inactivated mouse serum by MH broth based assay; assay type: functional, Salmonella enterica subsp. enterica serovar Typhimurium; settings: Salmonella enterica
RAW264.7 [20] = assay: Anti-inflammatory activity in mouse RAW264.7 cells assessed as inhibition of LPS-induced IL-1beta mRNA expression at 15 ug/ml preincubated with compound for 30 mins followed by LPS stimulation and measured after 4 hrs by RT-PCR analysis; assay type: functional, cell-based; settings: dose 15.0 µg/ml, time 4.5 hrs
Salmonella paratyphi = assay: Antibacterial activity against Salmonella paratyphi A CICC 21501 incubated overnight by standard microtiter dilution method; assay type: functional, Salmonella enterica subsp. enterica serovar Paratyphi A; settings: Salmonella enterica
Salmonella typhimurium [21] = assay: Antibacterial activity against Salmonella typhimurium DT104 assessed as reduction in IL-1beta mRNA level in ileum at 20 mg/kg, ip administered for 3 days and measured on day 7 by RT-PCR analysis; assay type: functional, organism-based; settings: Salmonella enterica subsp. enterica serovar Typhimurium, time 7.0 day
Cell membrane [22] = assay: Induction of membrane damage in Salmonella typhimurium DT104 assessed as cytoplasmic outflow at 1 times of MIC incubated for 60 mins by transmission electron microscopic analysis; assay type: subcellular; settings: Salmonella enterica subsp. enterica serovar Typhimurium
[23] = Cytotoxicity against mouse RAW264.7 cells infected with Salmonella typhimurium DT104 assessed as cell viability at 1 times of MIC measured at 180 min by MTT assay; assay type: toxicity, cell-based; settings: RAW264.7 cells infected with Salmonella typhimurium DT104, read-out: Activity
[24] = Antibacterial activity against Salmonella enterica subsp. enterica serovar Choleraesuis ATCC 13312 incubated overnight by standard microtiter dilution method; assay type: functional
Cell membrane [25] = assay: Induction of cytoplasmic membrane depolarization in Salmonella typhimurium DT104 assessed as increase in fluorescence intensity at 2 times of MIC incubated for 15 mins by DiSC3-5 dye based fluorescence method; assay type: subcellular; settings: Salmonella enterica subsp. enterica serovar Typhimurium
[26] = test system: Salmonella enterica subsp. enterica serovar Paratyphi B; assay: Antibacterial activity against Salmonella paratyphi B CICC 21495 incubated overnight by standard microtiter dilution method; assay type: functional
Salmonella typhimurium [27] = assay: Antibacterial activity against Salmonella typhimurium DT104 infected in mouse RAW264.7 cells assessed as log reduction in bacterial colony count at 1 times of MIC measured after 90 mins by MH agar based serial dilution method; assay type: functional, Salmonella enterica subsp. enterica serovar Typhimurium; settings: 1.5 h
Cell membrane [28] = assay: Disruption of membrane integrity in Salmonella typhimurium DT104 assessed as increase in fluorescence intensity at 0.5 to 2 times of MIC incubated for 15 mins by PI staining based flow cytometric analysis; assay type: subcellular; settings: Salmonella enterica subsp. enterica serovar Typhimurium
[29] = Antibacterial activity against Salmonella dublin CICC 21497 incubated overnight by standard microtiter dilution method; assay type: functional, Salmonella enterica subsp. enterica serovar Dublin; settings: Salmonella enterica
Salmonella typhimurium [30] = assay: Antibacterial activity against Salmonella typhimurium DT104 infected in ICR mouse model at 2 mg/kg, ip administered for 3 days and measured on day 7; assay type: functional, organism-based; settings: Salmonella enterica subsp. enterica serovar Typhimurium, time 7.0 day
Salmonella typhimurium [31] = assay: Antibacterial activity against Salmonella typhimurium DT104 in the presence of MgCl2 by MH broth based assay; assay type: functional, Salmonella enterica subsp. enterica serovar Typhimurium; settings: Salmonella enterica

Structure (SMILES): C[C@@H](O)[C@H](NC(=O)[C@H](CS)NC(=O)[C@H](CCCCN)NC(=O)[C@H](Cc1c[nH]c2ccccc12)NC(=O)[C@H](CCCCN)NC(=O)[C@@H](N)Cc1c[nH]c2ccccc12)C(=O)N[C@@H](CCCCN)C(=O)N[C@@H](CO)C(=O)NCC(=O)N[C@@H](CS)C(=O)N[C@@H](CCCCN)C(=O)N[C@@H](Cc1c[nH]c2ccccc12)C(=O)N[C@@H](CCCCN)C(=O)N[C@@H](Cc1c[nH]c2ccccc12)C(N)=O (H-WKWKCTKSGCKWKW-NH2)
- Activity (Salmonella typhimurium [1]): Active
- MIC [2]: 8 µg/mL (≈ 4.31 µM)
- Activity (Salmonella typhimurium [3]): Active
- MIC (Salmonella typhimurium [4]): 4 µg/mL
- MIC (Candida albicans): 2 µg/mL (≈ 1.08 µM)
- Activity (Salmonella typhimurium [5]): Active
- Activity (Salmonella typhimurium [6]): Active
- inhibition (RAW264.7 [7]): Active
- inhibition (RAW264.7 [8]): Active
- Activity (Salmonella typhimurium [9]): Active
- Activity (Salmonella typhimurium [10]): Active
- inhibition (RAW264.7 [11]): Active
- MHC (Erythrocyte): > 128 µg/mL
- Activity (Salmonella typhimurium [12]): Active
- MIC (Escherichia coli): 4 µg/mL (≈ 2.16 µM)
- Activity (Lipopolysaccharide (LPS)): Dose-Dependent Effect
- inhibition (RAW264.7 [13]): Active
- MIC [14]: 8 µg/mL (≈ 4.31 µM)
- Activity (Salmonella typhimurium [15]): >99.9%
- MIC (Salmonella typhimurium [16]): 8 µg/mL
- MIC (Salmonella typhimurium [17]): 16 µg/mL (≈ 8.63 µM)
- Activity (Salmonella typhimurium [18]): Active
- MIC (Salmonella typhimurium [19]): 32 µg/mL (≈ 17.3 µM)
- inhibition (RAW264.7 [20]): Active
- MIC (Salmonella paratyphi): 8 µg/mL (≈ 4.31 µM)
- Activity (Salmonella typhimurium [21]): Active
- Activity (Cell membrane [22]): Active
- viability at 3 h, 1 times of MIC [23]: > 90%
- MIC [24]: 1 µg/mL (≈ 0.539 µM)
- Activity (Cell membrane [25]): Active
- MIC [26]: 1 µg/mL (≈ 0.539 µM)
- log(activity) (Salmonella typhimurium [27]): 3
- Activity (Cell membrane [28]): Active
- MIC [29]: 8 µg/mL (≈ 4.31 µM)
- Activity (Salmonella typhimurium [30]): Active
- MIC (Salmonella typhimurium [31]): 4 µg/mL
